Laboratory results as given in US20240408152A1, “NOVEL ENTEROCOCCUS FAECIUM LCM001 STRAIN, AND USE THEREOF” (MBIOMETHERAPEUTICS CO., LTD., priority 2021, published 2024).
≈ marks a conversion by molar mass, not a printed value. Where two headings read alike, the source gives them in different places.

Test system: human non-small cell lung cancer (NSCLC) A549 cells
Test: MTT cell viability assay, lung cancer cells
Format: cell-based
Experimental: The human non-small cell lung cancer (NSCLC) A549 cells were cultured in RPMI 1640 culture medium supplemented with 10% fetal bovine serum (FBS) and 1% penicillin/streptomycin in a incubator at 37° C. in a 5% CO2. Human normal fibroblast lung cell Wi38 were cultured in MEM culture medium supplemented with 10% FBS and 1% penicillin/streptomycin.
The cell viability rate was measured using MTT [3-(4,5-dimethylthiazol-2-yl)-2,5-diphenyl-tetrazolium bromide] assay. Specifically, lung cancer cells (A549, 7×10^3 cells/well), colon cancer cells (HCT-15, 5×10^3 cells/well), liver cancer cells (Sk-hep-1, 5×10^3 cells/well), pancreatic cancer cells (PANC-1, 5×10^3 cells/well), and breast cancer cells (MCF-7, 2×10^3 cells/well) were seeded in a 96-well culture plate at 3 times repeatedly, and cultured overnight at 37° C. in 5% CO2 with RPMI 1640 medium containing 10% FBS. Subsequently, the cell-free supernatant was added to each well at concentrations of 1×, 2×, 5×, and 10×, with 100 μL per well, and cultured for 24 hours at 37° C. in 5% CO2.
To assess cell apoptosis, MTT reagent at a concentration of 5 mg/ml was added to each well with 10 μL per well and reacted for 4 hours at 37° C. in 5% CO2. The cells were then dissolved in dimethyl sulfoxide (DMSO, 100 μL/well), and the absorbance at 570 nm was measured using a microplate reader.
The cell viability rate was calculated as a percentage using the following formula. The cell toxicity test was conducted in triplicate, and the values are presented as mean±standard deviation.
To confirm the efficacy of Cyclo(L-pro-L-tyr), the active ingredient of Enterococcus faecium LCM001, as well as its derivatives on apoptosis of non-small cell lung cancer A549 cells, the inventors conducted an MTT assay on Cyclo(L-pro-L-tyr), Cyclo(L-Phe-L-pro), Cyclo(L-Phe-trans-4-hydroxy-L-Pro), Cyclo(L-Pro-D-Phe), and Cyclo(Tyr-Hpro), and calculated their IC50 values.

| SMILES | IC50 [µg/mL] | IC50 (Homo sapiens, read-out: IC50) [µg/mL] |
| --- | --- | --- |
| O=C1N[C@@H](Cc2ccccc2)C(=O)N2C[C@H](O)C[C@@H]12 (relative stereo) [Cyclo(L-Phe-trans-4-hydroxy-L-Pro)] | 57.58 (≈ 221 µM) | – |
| O=C1NC(Cc2ccc(O)cc2)C(=O)N2CCC[C@@H]12 (stereo partly drawn) [Cyclo(L-pro-L-tyr), Cyclo(L-Pro-L-Tyr)] | – | 99.6 (≈ 382 µM) |
| O=C1NC(Cc2ccccc2)C(=O)N2CCCC12 [Cyclo(L-Pro-D-Phe)] | 94.56 (≈ 387 µM) | – |
| O=C1NC(Cc2ccc(O)cc2)C(=O)N2CC(O)CC12 (centres unmarked) [Cyclo(Tyr-Hpro)] | 119 (≈ 431 µM) | – |
| O=C1N[C@@H](Cc2ccccc2)C(=O)N2CCC[C@@H]12 [Cyclo(L-Phe-L-pro)] | 26.1 (≈ 107 µM) | – |
